“Also recorded” adds a separate entry of the source. Where two headings read alike, the source gives them in different places.
Experiments:
[1] = tested on: 5/6 nephrectomized uremic rats; test: Endothelial function (aortic ring relaxation) in 5/6 nephrectomized uremic rats; format: in vivo, Sprague Dawley rats; settings: 5/6 NX rats; for acetylcholine-induced endothelial-dependent aortic relaxation / sodium nitroprusside (SNP)-induced endothelial-independent relaxation: 2-week treatment, aortic rings precontracted with PE
Experimental: The experimental conditions using the 5/6 (subtotal) nephrectomized rats were as described above. Twenty-four hours after the last dose, the animals were sacrificed, and the aorta tissues were harvested for the determination of endothelial function.
Rats were anesthetized with pentobarbital sodium (i.p., 35 mg/kg). Thoracic aortas were excised in a cold modified Krebs solution (see below) and a 3 mm aortic ring was suspended in 10 mL tissue baths under 0.5 grams of resting tension in a modified Krebs solution containing (g/L): NaCl 6.9169, KCl 0.3499, NaHCO3 2.0998, MgSO4 0.2901, KH2 PO4 0.1604, CaCl2 0.2663, glucose 1.9994, EDTA 0.026, equilibrated with 5% CO2-95% 02 (pH 7.4 at 37° C.). Aortas were sensitized by the addition of phenylephrine (PE, 3 μM) with 10 min washouts between intervals. Aortas were precontracted with PE (3 μM), and the endothelium-dependent vasodilator acetylcholine (ACh) was added in half-log increments (10^−9 mol/L-10^−4.5 mol/L) at 3-5 min intervals, allowing time for the effect of ACh to plateau. After a 60 min washout, aortas were precontracted with PE (3 μM) and subsequently treated with endothelial-independent vasodilator sodium nitroprusside (SNP; 10^−9 mol/L-10^−6 mol/L) at 3-5 min intervals, allowing time for the effect to plateau. Data were recorded with the BL-420F Data Acquisition & Analysis System.
ACh and SNP-induced relaxation were calculated as the % relaxation of the PE-induced precontraction. Differences in vascular function were determined using a two-way ANOVA, followed by a Bonferonni post-hoc test. […] SNP serves as a source of nitric oxide and induces relaxation via an endothelial-independent pathway.

VDR = VDR expression induction in primary culture of human coronary artery smooth muscle cells; format: cell-based; settings: HCASMC
Experimental: (§1) Compounds were tested in a primary culture of HCASMC to assess their potency in inducing the expression of CYP24A1 and VDR.
(§2) Primary culture of HCASMC was grown in smooth muscle growth medium SmGM-2 containing 5.5 mM glucose, 5% FBS, 50 μg/ml gentamicin, 50 ng/ml amphotericin-B, 5 μg/ml insulin, 2 ng/ml hFGF, and 0.5 ng/ml hEGF at 37° C. in a humidified 5% CO2-95% air. Cells were grown to >80% confluence and used within five passages.
(§3) Cells were plated into 6 well plates and treated with test agent for 24 h. Cells were lysed with the addition of 1 mL of Trizol and RNA prepared according to the manufacturer's protocol.
(§4) Real-time reverse transcription-PCR was performed with the forward and reverse PCR primers and […] of the TAQMAN™ probe specifically designed for CYP24A1 or VDR. (A TAQMAN™ probe is comprised of a fluorophore covalently attached to the 5′-end of the oligonucleotide probe and a quencher at the 3′-end.) After the data acquisition, the CYP24A1 or VDR mRNA expression level was normalized to the GAPDH mRNA level. […] Group mean±STDEV (standard deviation) are presented.

[2] = tested on: 5/6 nephrectomized uremic rats; test: Serum creatinine, BUN, PTH, phosphorus and calcium in 5/6 nephrectomized uremic rats; format: in vivo, Sprague Dawley rats; settings: for effect on BUN / effect on serum creatinine / effect on serum phosphorus / effect on serum PTH / effect on serum calcium: 5/6 NX rats
Experimental: The nephrectomy of male, Sprague Dawley, 5/6 rats was performed using a standard two-step surgical ablation procedure (starting body weight ˜200 gm) as previously described (Slatopolsky et al., 1998, Am J Kidney Dis 32: S40-47). Sham operated rats were used as control. The rats were on a diet containing 1.13% calcium and 0.94% phosphorus. Six weeks after the second surgery, treatment was initiated with vehicle (5% ethanol+95% propylene glycol, 0.4 ml/kg) or test agent by intraperitoneal injection (i.p.), 3 times/week, for two weeks (n≥12 per group). Twenty-four hours after the last dose, retro-orbital venous blood was collected for measurement of PTH and other endpoints.
Calcium, serum phosphorus, creatinine, and blood urea nitrogen (BUN) concentrations were measured by a chemistry analyzer (LX-20, Beckman). Serum PTH was measured using a rat intact parathyroid hormone (i-PTH) ELISA kit. For serum chemistry data, group mean±SEM are presented. A t-test was used to analyze differences between baseline 6W (6 weeks after surgery before treatment) and 8W (8 weeks after surgery after two weeks of compound treatment).

CYP24A1 = CYP24A1 expression induction in primary culture of human coronary artery smooth muscle cells; format: cell-based; settings: HCASMC
Experimental: as §1, §2, §3, §4

thrombospondin-1 = test: Thrombospondin-1 protein in human coronary artery smooth muscle cells (Western blot); format: cell-based; settings: HCASMC, 48 h, FIG. 21A
Experimental: (§5) Human coronary artery smooth muscle cells (HCASM) were incubated with Vida-5 or Vida-11 at different concentrations for 48 h and then were solubilized in 50 al of SDS-PAGE sample buffer. The protein content in each sample was determined by the bicinchoninic acid protein assay. Samples were resolved by SDS-PAGE using a 4-12% NuPAGE gel, and proteins were electrophoretically transferred to polyvinylidene fluoride membrane for Western blotting. The membrane was blocked for 1 h at 25° C. with 5% nonfat dry milk in phosphate buffered saline Tween-20 (PBS-T) and then incubated with a mouse anti-thrombospondin-1 monoclonal antibody (2,000-fold dilution), or a mouse anti-TM monoclonal antibody (2,000-fold dilution) in PBS-T overnight at 4° C.
(§6) The membrane was washed with PBS-T and incubated with a horseradish peroxidase-labeled anti-mouse antibody for 1 h at 25° C. The membrane was then incubated with Amersham ECL Plus Western Blotting Detection Reagents. Specific bands were visualized by the Multiimage II of Alpha Innotech imaging system. Band intensity was quantified using Spot Denso.

thrombomodulin = test: Thrombomodulin protein in human coronary artery smooth muscle cells (Western blot); format: cell-based; settings: HCASMC, 48 h, FIG. 21B
Experimental: as §5, §6

[3] = tested on: 5/6 nephrectomized uremic rats; test: Proteinuria in 5/6 nephrectomized uremic rats; format: in vivo, Sprague Dawley rats; settings: 5/6 NX rats, 3×/week, i.p. for 2 weeks, before versus after treatment
Experimental: The experimental conditions using the 5/6 (subtotal) nephrectomized rats were as described above. Urinary protein excretion was determined by urinary collection over a period of 24 h in metabolic cages at two time points: 24 h before the first dose and 24 hr after the last dose. Each animal was placed in a metabolic cage and urine was collected during a period of 24 h. Urinary protein concentration was determined by the biuret method (Morozova and Baryshnikova, 1991, Lab Delo 2:23-5). Total protein excretion per day was calculated by multiplying urinary protein concentration by total urine volume produced during the 24 h period.
Group mean±SEM are presented. Differences before versus after treatment were assessed using a t-test. Differences between SHAM, vehicle, and treated animals were assessed using a one-way ANOVA followed by a Dunnett's post-hoc test.

[4] = 24 h, Table 4 summary, some values average of 2 or more determinations, read-out: EC50 for VDR induction
[5] = i.p. 3 times/week for two weeks
[6] = 5/6 NX uremic rats, i.p. 3 times/week for two weeks
[7] = 24 h, Table 4 summary, some values average of 2 or more determinations, read-out: EC50 for CYP24A1 induction

EC50 (VDR; [4]) [nM]	effect on serum phosphorus [2, 5]	fold less potent in raising serum Ca than Vida-11 ([2]; 5/6 NX uremic rats, FIG. 11A)	EC50 (CYP24A1; [7]) [nM]	dose at which compound raises serum Ca [2, 6] [µg/kg]	Compound	acetylcholine-induced endothelial-dependent aortic relaxation [1]	sodium nitroprusside (SNP)-induced endothelial-independent relaxation [1]	acetylcholine-induced endothelial-dependent relaxation ([1]; treatment with 0.16 and 0.64 μg/kg)	effect on BUN [2, 5]	effect on serum creatinine [2, 5]	fold less potent in suppressing PTH than Vida-11 ([2]; 5/6 NX uremic rats, FIG. 11B)	dose at which compound starts to suppress serum PTH [2, 6] [µg/kg]	thrombospondin-1 protein expression (thrombospondin-1)	EC50 (VDR; typical study, FIG. 5B, read-out: EC50 for inducing VDR expression) [nM]	thrombomodulin protein expression (thrombomodulin)	proteinuria (urinary protein concentration and total protein per day) [3]	effect on serum PTH [2, 5]	effect on serum calcium [2, 5]	EC50 (CYP24A1; typical study, FIG. 5A, read-out: EC50 for inducing CYP24A1 expression) [nM]
0.61	did not significantly affect	at least 64 fold	0.39		CCC(O)(CC)CCO[C@H](C)C1CCC2/C(=C/C=C3C[C@@H](O)C4(CC4)[C@H](O)C3)CCCC21C (stereo partly drawn) [Vida-10, (4R,8R)-6-((E)-2-((1S,7αS)-1-((R)-1-(3-ethyl-3-hydroxypentyloxy)ethyl)-7α-methyldihydro-1H-inden-4(2H,5H,6H,7H,7αH)-ylidene)ethylidene)spiro[2.5]octane-4,8-diol]	improves endothelial function; also recorded: dose-dependent improvement; also recorded: potent in improving endothelial function	no significant effect	back to the Sham level	did not significantly affect	did not significantly affect	about 16 fold	0.16							
1.4	did not show a significant effect		0.39	0.01	C=C1[C@H](O)CC(=C/C=C2\CCCC3(C)C2CCC3[C@@H](C)OCCC(O)(CC)CC)C[C@H]1O (stereo partly drawn) [Vida-11, (1R,3R)-5-((E)-2-((1S,3αS,7αS)-1-((R)-1-(3-ethyl-3-hydroxypentyloxy)ethyl)-7α-methyldihydro-1H-inden-4(2H, 5H, 6H, 7H, 7αH)-ylidene)ethylidene)-2-methylenecyclohexane-1,3-diol]	improves; also recorded: dose-dependent improvement; also recorded: potent in improving endothelial function	no significant effect		no dose-dependent effect	no dose-dependent effect		0.01				reduce proteinuria; also recorded: significantly reduced proteinuria	significantly suppress PTH levels in a dose-dependent manner	elevated serum Ca in a dose-dependent manner	

Compound	EC50 (VDR; [4]) [nM]	effect on serum phosphorus [2, 5]	fold less potent in raising serum Ca than Vida-11 ([2]; 5/6 NX uremic rats, FIG. 11A)	EC50 (CYP24A1; [7]) [nM]	dose at which compound raises serum Ca [2, 6] [µg/kg]	acetylcholine-induced endothelial-dependent aortic relaxation [1]	sodium nitroprusside (SNP)-induced endothelial-independent relaxation [1]	acetylcholine-induced endothelial-dependent relaxation ([1]; treatment with 0.16 and 0.64 μg/kg)	effect on BUN [2, 5]	effect on serum creatinine [2, 5]	fold less potent in suppressing PTH than Vida-11 ([2]; 5/6 NX uremic rats, FIG. 11B)	dose at which compound starts to suppress serum PTH [2, 6] [µg/kg]	thrombospondin-1 protein expression (thrombospondin-1)	EC50 (VDR; typical study, FIG. 5B, read-out: EC50 for inducing VDR expression) [nM]	thrombomodulin protein expression (thrombomodulin)	proteinuria (urinary protein concentration and total protein per day) [3]	effect on serum PTH [2, 5]	effect on serum calcium [2, 5]	EC50 (CYP24A1; typical study, FIG. 5A, read-out: EC50 for inducing CYP24A1 expression) [nM]
C=C1[C@H](O)CC(=C/C=C2\CCCC3(C)C2CCC3[C@@H](C)OC[C@H](C)C(C)(C)O)C[C@H]1O (stereo partly drawn) [Vida-5, (1R,3R)-5-((E)-2-((3αS,7αS)-1-((R)-1-((S)-3-hydroxy-2,3-dimethylbutoxy)ethyl)-7α-methyldihydro-1H-inden-4(2H,5H,6H, 7H, 7αH)-ylidene)ethylidene)-2-methylenecyclohexane-1,3-diol]	3.2	did not have a significant effect		2		improves; also recorded: dose-dependent improvement; also recorded: potent in improving endothelial function	no significant effect		significantly reduced BUN at the two higher doses (0.16 and 0.64 μg/kg)	at the 4 lower doses, had no significant effect on serum creatinine, but the highest dose reduced serum creatinine		0.004	suppress; also recorded: significantly reduced	1.3	induce; also recorded: increased	reduce proteinuria; also recorded: significantly reduced proteinuria	significantly suppress PTH levels in a dose-dependent manner	did not have a significant effect	2.9

Source: patent US20180327354A1, “Unnatural Analogues of Calcitriol and Uses Thereof” (Vidasym, Inc., priority 2009, published 2018)
